Experimental data published in US8513271B2, “Pyrimidine compounds as delta opioid receptor modulators” (Janssen Pharmaceutica, NV, priority 2009, dated 2013).
Read-outs that look alike come from different tables or passages of the source.

What was measured:
[1] = molecular target: T1, delta opioid receptor (Rattus norvegicus, UniProt P33533); test: Rat brain delta opioid receptor binding assay; conditions: rat forebrain, [3H]naltrindole ligand
T1 construct: the forebrains were homogenized in Tris buffer in a Teflon®-glass homogenizer; from tissue; host or cells: forebrain of male Wistar rats, particulate (membrane) preparation

[2] = molecular target: T2, delta opioid receptor (Mus musculus, UniProt P32300); test: [35S]GTPγS binding assay in NG108-15 cell membranes (delta opioid functional assay), 200 nM screen; assay type: biochemical; conditions: NG108-15 cell membranes; for EC50 / GTPγS δ-RelEfficacy @200 nM: averages if tested more than once; for GTPγS δ-opioid receptor Rel Efficacy: relative efficacy from dose response; for GTPγS δ-RelEfficacy @200 nM: 200 nM test compound, relative to calculated max of SNC80 dose response curve
T2 construct: NG108-15 cell membranes were purchased from Applied Cell Sciences (Rockville, Md.); host or cells: NG108-15 cell membranes

[3] = read-out: δ-binding (Naltrindole ligand) Ki
[4] = read-out: GTPγS δ-opioid receptor EC50
[5] = GTPγS δ-opioid receptor EC50 (μM)

T2 sequence (P32300 whole entry): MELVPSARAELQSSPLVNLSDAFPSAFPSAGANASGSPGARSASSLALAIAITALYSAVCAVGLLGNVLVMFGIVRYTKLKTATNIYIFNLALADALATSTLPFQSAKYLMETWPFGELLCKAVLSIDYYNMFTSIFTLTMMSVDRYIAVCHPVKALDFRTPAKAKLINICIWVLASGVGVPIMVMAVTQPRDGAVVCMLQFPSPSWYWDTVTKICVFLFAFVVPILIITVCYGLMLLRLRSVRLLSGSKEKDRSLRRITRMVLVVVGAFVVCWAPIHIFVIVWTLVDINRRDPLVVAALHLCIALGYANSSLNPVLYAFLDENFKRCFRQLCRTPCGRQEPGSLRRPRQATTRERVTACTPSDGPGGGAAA
T1 sequence (P33533 whole entry): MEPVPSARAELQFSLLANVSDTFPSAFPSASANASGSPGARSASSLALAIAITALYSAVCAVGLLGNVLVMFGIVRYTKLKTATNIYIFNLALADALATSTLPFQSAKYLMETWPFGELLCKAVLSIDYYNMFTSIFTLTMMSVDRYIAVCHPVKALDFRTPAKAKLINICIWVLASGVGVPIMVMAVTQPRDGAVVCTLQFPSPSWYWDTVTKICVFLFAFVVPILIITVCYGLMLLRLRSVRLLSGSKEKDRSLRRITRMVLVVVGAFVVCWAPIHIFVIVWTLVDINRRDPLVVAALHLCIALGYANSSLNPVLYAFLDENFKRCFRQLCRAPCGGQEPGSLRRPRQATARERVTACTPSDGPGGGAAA

Row | Structure (SMILES) | GTPγS δ-opioid receptor Rel Efficacy [2] | EC50 [2, 5] [µM] | GTPγS δ-RelEfficacy @200 nM [2] | further results
1 | COc1ccc(Oc2nc(-c3cc(Cl)cc(Cl)c3)ncc2NC[C@@H]2CCCN2)cc1 [Cpd 94] |  |  |  | Ki [1, 3]: 143 nM
2 | COc1ccc(Oc2nc(-c3cncc(S(C)(=O)=O)c3)ncc2NC[C@@H]2CCCN2)cc1 [Cpd 108] |  |  |  | Ki [1, 3]: 107 nM
3 | COc1ccc(Oc2nc(-c3cccc4[nH]ccc34)ncc2NC[C@@H]2CCCN2)cc1 [Cpd 117] |  |  |  | Ki [1, 3]: 157 nM
4 | COc1ccc(Oc2nc(-c3ccc4cc[nH]c4c3)ncc2NC[C@@H]2CCCN2)cc1 [Cpd 118] |  |  |  | Ki [1, 3]: 155 nM
5 | COc1ccc(Oc2nc(-c3cccc4cc[nH]c34)ncc2NC[C@@H]2CCCN2)cc1 [Cpd 119] |  |  |  | Ki [1, 3]: 4020 nM
6 | COc1ccc(Oc2nc(-c3cnccn3)ncc2NC[C@@H]2CCCN2)cc1 [Cpd 120] |  |  |  | Ki [1, 3]: 104 nM
7 | N#Cc1cncc(-c2ncc(NC[C@@H]3CCCN3)c(Oc3ccc(OCC(F)(F)F)cc3)n2)c1 [Cpd 122] |  |  |  | Ki [1, 3]: 122 nM
8 | CCCCOc1ccc(Oc2nc(-c3cncc(C#N)c3)ncc2NC[C@@H]2CCCN2)cc1 [Cpd 125] |  |  |  | Ki ([1]; δ-binding (Naltrindole ligand) Ki): 78 nM
9 | CCCCOc1ccc(Oc2nc(-c3cncnc3)ncc2NC[C@@H]2CCCN2)cc1 [Cpd 126] |  |  |  | Ki [1, 3]: 565 nM
10 | COc1ccc(Oc2nc(-c3cccnc3)ncc2NC[C@@H]2C[C@@H](O)CN2)cc1 [Cpd 270, 5-(S)-{[4-(4-Methoxy-phenoxy)-2-(pyridin-3-yl)-pyrimidin-5-ylamino]-methyl}-pyrrolidin-3-(R)-ol] | 0.820 |  |  | EC50 [2, 4]: 0.197 µM
11 | COc1ccc(Oc2nc(-c3cccnc3)ncc2NC[C@@H]2C[C@H](O)CN2)cc1 [Cpd 272] |  |  |  | EC50 [2, 4]: > 1 µM
12 | COc1ccc(Oc2nc(-c3cncc(OC)c3)ncc2NC[C@@H]2C[C@@H](O)CN2)cc1 [Cpd 273, 5-(S)-{[4-(4-Methoxy-phenoxy)-2-(5-methoxy-pyridin-3-yl)-pyrimidin-5-ylamino]-methyl}-pyrrolidin-3-(R)-ol] | 1.001 | 0.026 |  | 
13 | COc1ccc(Oc2nc(-c3cncc(OC)c3)ncc2NC[C@H]2C[C@@H](O)CN2)cc1 [Cpd 274, 5-(R)-{[4-(4-Methoxy-phenoxy)-2-(5-methoxy-pyridin-3-yl)-pyrimidin-5-ylamino]-methyl}-pyrrolidin-3-(R)-ol] | 0.863 | 0.286 |  | 
14 | COc1ccc(Oc2nc(-c3cncc(C#N)c3)ncc2NCc2ncc[nH]2)cc1 [Cpd 284] | 0.609 | 0.055 | 0.600 | 
15 | COc1ccc(Oc2nc(-c3cncc(C#N)c3)ncc2NCc2[nH]cnc2C)cc1 [Cpd 285, 5-{4-(4-Methoxy-phenoxy)-5-[(5-methyl-3H-imidazol-4-ylmethyl)-amino]-pyrimidin-2-yl}-nicotinonitrile] | 0.782 | 0.027 | 0.730 | 
16 | COc1ccc(Oc2nc(-c3cncc(C#N)c3)ncc2NCc2cncn2C)cc1 [Cpd 286] |  |  | 0.1 | 
17 | CCc1nc(C)c(CNc2cnc(-c3cncc(C#N)c3)nc2Oc2ccc(OC)cc2)[nH]1 [Cpd 287] |  |  | 0.640 | 
18 | COc1ccc(Oc2nc(-c3cccnc3)ncc2NCc2cnc[nH]2)cc1 [Cpd 288] |  |  | 0.428 | 
19 | COc1ccc(Oc2nc(-c3cncc(SC)c3)ncc2NCc2cnc[nH]2)cc1 [Cpd 289] |  |  | 0.402 | 

Row | Structure (SMILES) | GTPγS δ-opioid receptor Rel Efficacy [2] | EC50 [2, 5] [µM] | GTPγS δ-RelEfficacy @200 nM [2] | further results
20 | COc1ccc(Oc2nc(-c3cncc(OC)c3)ncc2NCc2cnc[nH]2)cc1 [Cpd 290] |  |  | 0.398 | 
21 | COc1ccc(Oc2nc(-c3cncc(C)c3)ncc2NCc2cnc[nH]2)cc1 [Cpd 291] |  |  | 0.303 | 
22 | COc1ccc(Oc2nc(-c3cncc(C)c3)ncc2NCCN)cc1 [Cpd 296] | 0.938 |  |  | EC50 [2, 4]: 0.429 µM
23 | CNCCNc1cnc(-c2cccnc2)nc1Oc1ccc(OC)cc1 [Cpd 297] | 0.820 |  |  | EC50 [2, 4]: 0.424 µM
24 | COc1ccc(Oc2nc(-c3cncc(C#N)c3)ncc2NC2CC(N)C2)cc1 (stereo not shown) [Cpd 303] | 1.047 |  | 0.622 | EC50 [2, 4]: 0.114 µM
25 | COc1ccc(Oc2nc(-c3cccnc3)ncc2N[C@H]2CC[C@@H](N)CC2)cc1 [Cpd 305] | 1.081 | 0.09 | 0.780 | 
26 | COc1ccc(Oc2nc(-c3cccnc3)ncc2NC2CCCC(N)C2)cc1 (stereo not shown) [Cpd 306] | 1.127 | 0.031 | 0.910 | 
27 | COc1ccc(Oc2nc(-c3cncc(OC)c3)ncc2N[C@H]2CCC[C@@H](N)C2)cc1 [Cpd 312, N-[4-(4-Methoxy-phenoxy)-2-(5-methoxy-pyridin-3-yl)-pyrimidin-5-yl]-cyclohexane-(1R,3S)-1,3-diamine] | 1.007 | 0.00435 |  | 
28 | COc1ccc(Oc2nc(-c3cncc(C)c3)ncc2NC2CCCC(N)C2)cc1 (stereo not shown) [Cpd 315] | 1.019 | 0.042 |  | 
29 | COc1ccc(Oc2nc(-c3cncc(SC)c3)ncc2N[C@H]2CCC[C@@H](N)C2)cc1 [Cpd 316] | 0.977 | 0.00338 |  | 
30 | COc1ccc(Oc2nc(-c3cncc(SC)c3)ncc2N[C@@H]2CCC[C@H](N)C2)cc1 [Cpd 317] |  | > 1 |  | 
31 | c1cncc(-c2ncc(N3CCNCC3)c(Oc3ccc(C4CC4)cc3)n2)c1 [Cpd 320] | 0.918 |  |  | EC50 [2, 4]: 0.191 µM
32 | COc1ccc(Oc2nc(-c3cccnc3)ncc2N[C@H]2CCC[C@@H](N)C2)cc1 [Cpd 321] | 1.022 | 0.005 |  | 
33 | COc1ccc(Oc2nc(-c3cccnc3)ncc2N[C@@H]2CCC[C@H](N)C2)cc1 [Cpd 322] | 0.960 | 0.196 |  | 
34 | COc1ccc(Oc2nc(-c3ccccc3)ncc2N2CCNCC2)cc1 [Cpd 324] | 1.045 |  | 0.519 | EC50 [2, 4]: 0.428 µM
35 | COc1ccc(Oc2nc(-c3cncc(C#N)c3)ncc2N2CCNCC2)cc1 [Cpd 325] | 1.042 | 0.011 | 0.866 | 
36 | COc1ccc(Oc2nc(-c3cncc(C#N)c3)ncc2N2CC[C@@H](N)C2)cc1 [Cpd 326] | 1.104 | 0.032 | 0.744 | 
37 | COc1ccc(Oc2nc(-c3cncc(C#N)c3)ncc2N2CC[C@H](N)C2)cc1 [Cpd 328] |  |  | 0.377 | 
38 | COc1ccc(Oc2nc(-c3cncc(C#N)c3)ncc2N2CCC[C@H](N)C2)cc1 [Cpd 329] | 1.006 |  | 0.475 | EC50 [2, 4]: 0.138 µM

Row | Structure (SMILES) | GTPγS δ-opioid receptor Rel Efficacy [2] | EC50 [2, 5] [µM] | GTPγS δ-RelEfficacy @200 nM [2] | further results
39 | COc1ccc(Oc2nc(-c3cncc(C#N)c3)ncc2N2CCC[C@@H](N)C2)cc1 [Cpd 330] | 0.894 |  | 0.547 | EC50 [2, 4]: 0.051 µM
40 | COc1ccc(Oc2nc(-c3cncc(C#N)c3)ncc2N2CC(CN)C2)cc1 [Cpd 331] | 0.928 |  | 0.764 | EC50 [2, 4]: 0.108 µM
41 | COc1ccc(Oc2nc(-c3cncc(C#N)c3)ncc2N2CCC[C@@H]2CN)cc1 [Cpd 332] |  |  | 0.393 | 
42 | COc1ccc(Oc2nc(-c3cncc(C#N)c3)ncc2N2CCC(N)CC2)cc1 [Cpd 333] | 1.116 |  | 0.664 | EC50 [2, 4]: 0.118 µM
43 | COc1ccc(Oc2nc(-c3cncc(C#N)c3)ncc2N2CCC[C@@H]2CN)cc1 [Cpd 334] |  |  | 0.423 | 
44 | COc1ccc(Oc2nc(-c3cncc(C#N)c3)ncc2N2CCNC(=O)C2)cc1 [Cpd 335] |  |  | 0.050 | 
45 | COc1ccc(Oc2nc(-c3cncc(C#N)c3)ncc2N2CC3CC(C2)N3)cc1 [Cpd 338] | 0.956 |  | 0.723 | EC50 [2, 4]: 0.197 µM
46 | COc1ccc(Oc2nc(-c3cccnc3)ncc2N2CC[C@@H](N)C2)cc1 [Cpd 339] |  |  | 0.641 | 
47 | COc1ccc(Oc2nc(-c3cncc(OC)c3)ncc2N2CCNCC2)cc1 [Cpd 342] | 1.020 | 0.0439 |  | 
48 | COc1ccc(Oc2nc(-c3cncc(C#N)c3)ncc2N2CCNC[C@H]2C)cc1 [Cpd 344] | 1.089 | 0.047 | 0.808 | 
49 | COc1ccc(Oc2nc(-c3cncc(SC)c3)ncc2N2CC[C@@H](N)C2)cc1 [Cpd 348] | 0.689 |  |  | EC50 [2, 4]: 0.101 µM
50 | COc1ccc(Oc2nc(-c3cncc(SC)c3)ncc2N2CCNC(C)(C)C2)cc1 [Cpd 350] | 1.079 | 0.083 |  | 
51 | COc1ccc(Oc2nc(-c3cncc(C)c3)ncc2N2CC[C@@H](N)C2)cc1 [Cpd 352] | 0.967 | 0.079 |  | 
52 | COc1ccc(Oc2nc(-c3cccnc3)ncc2N2CCN(C)CC2)cc1 [Cpd 353, 4-(4-Methoxy-phenoxy)-5-(4-methyl-piperazin-1-yl)-2-pyridin-3-yl-pyrimidine] | 0.651 |  |  | EC50 [2, 4]: 0.27 µM
53 | COc1ccc(Oc2nc(-c3cccnc3)ncc2N2CCN[C@@H](C)C2)cc1 [Cpd 356] | 1.030 |  |  | EC50 [2, 4]: 0.031 µM
54 | COc1ccc(Oc2nc(-c3cncc(C)c3)ncc2N2CCCNCC2)cc1 [Cpd 358] | 0.978 |  |  | EC50 [2, 4]: 0.0242 µM
55 | COc1ccc(Oc2nc(-c3cccnc3)ncc2N2C[C@@H](C)N[C@@H](C)C2)cc1 [Cpd 359] | 0.709 | 0.034 |  | 
56 | CC[C@H]1CNCCN1c1cnc(-c2cncc(OC)c2)nc1Oc1ccc(OC)cc1 [Cpd 360] | 1.015 | 0.013 |  | 
57 | CC[C@@H]1CN(c2cnc(-c3cncc(OC)c3)nc2Oc2ccc(OC)cc2)CCN1 [Cpd 361] | 0.962 | 0.07 |  | 
